Converted amounts (≈) assume the structure as drawn.
Legend:
Type in all cases: cell-based
[1] = system: Rhizoctonia solani (Rs); experiment: In vitro pathogen growth inhibition assay, Rs (mycelial plugs); details: Rhizoctonia solani, 48 h, ≥90% inhibition; mycelial plugs; 48 hours vs 2% DMSO control; read-out: Compound Concentration (ppm) sufficient for ≥90% inhibition of growth, Rs
In short: (§1)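 Spores of Dm, Fv and Pc were diluted in 17% V8 liquid medium; Rs used 1.5 mm mycelial plugs in ¼ PDB. Compounds from 2.5 mg/ml DMSO stocks were combined with inoculum, growth was read by OD600 at 24 and 48 h with blank subtraction, and the reported value is the concentration giving ≥90% inhibition.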

[2] = system: Collectotrichum graminicola (Cg); experiment: In vitro pathogen growth inhibition assay, Cg; details: 48 h, ≥90% inhibition; 48 hours vs 2% DMSO control; read-out: Compound Concentration (ppm) sufficient for ≥90% inhibition of growth, Cg
In short: (§2)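 Value reported is the compound concentration reaching ≥90% growth inhibition, from OD readings at 24 and 48 h after blank subtraction, confirmed visually. Inoculum was spores diluted in 17% V8 medium, except Rs, using 1.5 mm mycelial plugs in ¼ PDB; actual compound concentration corrected via OD600.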

[3] = system: Botrtyis cinerea (Bc); experiment: In vitro pathogen growth inhibition assay, Bc; details: 48 h, ≥90% inhibition; 48 hours vs 2% DMSO control; read-out: Compound Concentration (ppm) sufficient for ≥90% inhibition of growth, Bc
In short: as §2

[4] = system: Diplodia maydis (Dm); experiment: In vitro pathogen growth inhibition assay, Dm; details: Stenocarpella maydis, 48 h, ≥90% inhibition; 48 hours vs 2% DMSO control; read-out: Compound Concentration (ppm) sufficient for ≥90% inhibition of growth, Dm
In short: as §1

[5] = system: Fusarium moniliforme (Fm); experiment: In vitro pathogen growth inhibition assay, Fm; details: Fusarium verticillioides; ≥90% inhibition; 48 hours vs 2% DMSO control; read-out: Compound Concentration (ppm) sufficient for ≥90% inhibition of growth, Fm
In short: as §2

[6] = system: Phytophthora capsici (Pc); experiment: In vitro pathogen growth inhibition assay, Pc; details: 48 h, ≥90% inhibition, 48 hours vs 2% DMSO control, read-out: Compound Concentration (ppm) sufficient for ≥90% inhibition of growth, Pc
In short: as §1

[7] = system: Septoria tritici (St); experiment: In vitro pathogen growth inhibition assay, St; details: Zymoseptoria tritici, 48 h, ≥90% inhibition; 48 hours vs 2% DMSO control; read-out: Compound Concentration (ppm) sufficient for ≥90% inhibition of growth, St
In short: as §2

[8] = system: Saccharomyces cerevisiae (Sc); experiment: Yeast growth inhibition assay; details: Saccharomyces cerevisiae, ≥75% inhibition, read-out: Compound Concentration (ppm) sufficient for ≥75% inhibition, Sc
Protocol: Both tables list the concentration of each compound that was sufficient to ≥90% inhibition of growth for each of the fungal pathogens listed above. In addition, some of compounds were tested in a yeast growth inhibition assay for Saccharomyces cerevisiae (Sc). Table 2 lists the concentration of the tested compound that was sufficient to ≥75% inhibition of Saccharomyces cerevisiae (Sc).

[9] = system: Fusarium virguliforme (Fv); experiment: In vitro pathogen growth inhibition assay, Fv; details: ≥90% inhibition, 48 hours vs 2% DMSO control, read-out: Compound Concentration (ppm) sufficient for ≥90% inhibition of growth, Fv
In short: as §1

| SMILES | IC90 [1] | IC90 [2] | IC90 [3] | IC90 [4] | IC90 [5] | IC90 [6] | IC90 [7] | IC75 [8] | IC90 [9] |
| --- | --- | --- | --- | --- | --- | --- | --- | --- | --- |
| COc1ccccc1[C@H](Cn1c(=O)n(C(C)(C)C(=O)NC(C)C)c(=O)c2c(C)c(-c3ncco3)sc21)OC1CCC(=O)CC1 [Compound I-013] | 10 µg/mL (≈ 16.1 µM) | 10 µg/mL (≈ 16.1 µM) | 0.4 µg/mL (≈ 0.642 µM) | 0.4 µg/mL (≈ 0.642 µM) | 0.08 µg/mL (≈ 0.128 µM) | > 50 µg/mL | ≥ 10 µg/mL | 0.14 µg/mL (≈ 0.225 µM) | 2 µg/mL (≈ 3.21 µM) |
| COc1ccccc1[C@H](Cn1c(=O)n(C(C)(C)C(=O)NC2CCC2)c(=O)c2c(C)c(-c3ncco3)sc21)OC(C)C [Compound I-098] | 10 µg/mL (≈ 17.2 µM) | 10 µg/mL (≈ 17.2 µM) | 2 µg/mL (≈ 3.44 µM) | 2 µg/mL (≈ 3.44 µM) | 0.4 µg/mL (≈ 0.689 µM) | > 50 µg/mL | > 50 µg/mL | 11 µg/mL (≈ 18.9 µM) | 10 µg/mL (≈ 17.2 µM) |
| COc1ccccc1[C@H](Cn1c(=O)n(C(C)(C)C(=O)NC2CCC2)c(=O)c2c(C)c(-c3ncco3)sc21)OC1CCOCC1 [Compound I-099] | 50 µg/mL (≈ 80.3 µM) | 50 µg/mL (≈ 80.3 µM) | 10 µg/mL (≈ 16.1 µM) | 10 µg/mL (≈ 16.1 µM) | 0.4 µg/mL (≈ 0.642 µM) | > 50 µg/mL | > 50 µg/mL | 33 µg/mL (≈ 53 µM) | 50 µg/mL (≈ 80.3 µM) |
| COc1ccccc1[C@H](Cn1c(=O)n(C(C)(C)C(N)=O)c(=O)c2c(C)c(-c3ncco3)sc21)O[C@H]1CC[C@@H](O)CC1 [Compound I-100] | 50 µg/mL (≈ 85.8 µM) | 50 µg/mL (≈ 85.8 µM) | 2 µg/mL (≈ 3.43 µM) | 2 µg/mL (≈ 3.43 µM) | 0.4 µg/mL (≈ 0.686 µM) | > 50 µg/mL | ≥ 50 µg/mL | 1.2 µg/mL (≈ 2.06 µM) | 10 µg/mL (≈ 17.2 µM) |
| COc1ccc(F)cc1[C@H](Cn1c(=O)n(C(C)(C)C(N)=O)c(=O)c2c(C)c(-c3ncco3)sc21)OC1CCOCC1 [Compound I-101] | 50 µg/mL (≈ 85.2 µM) | 10 µg/mL (≈ 17 µM) | 10 µg/mL (≈ 17 µM) | 10 µg/mL (≈ 17 µM) | 0.4 µg/mL (≈ 0.682 µM) | 50 µg/mL (≈ 85.2 µM) | > 50 µg/mL | 3.7 µg/mL (≈ 6.31 µM) | 10 µg/mL (≈ 17 µM) |
| COc1ccc(F)cc1[C@H](Cn1c(=O)n(C(C)(C)C(N)=O)c(=O)c2c(C)c(-n3nccn3)sc21)OC1CCOCC1 [Compound I-102] | ≥ 2 µg/mL | 2 µg/mL (≈ 3.41 µM) | 2 µg/mL (≈ 3.41 µM) | 2 µg/mL (≈ 3.41 µM) | 0.4 µg/mL (≈ 0.682 µM) | 10 µg/mL (≈ 17 µM) | ≥ 50 µg/mL | 1.2 µg/mL (≈ 2.05 µM) | 2 µg/mL (≈ 3.41 µM) |
| COc1ccc(F)cc1[C@H](Cn1c(=O)n(C(C)(C)C(N)=O)c(=O)c2c(C)c(-c3ncco3)sc21)O[C@H]1CC[C@@H](O)CC1 [Compound I-103] | 50 µg/mL (≈ 83.2 µM) | 50 µg/mL (≈ 83.2 µM) | 2 µg/mL (≈ 3.33 µM) | 10 µg/mL (≈ 16.6 µM) | 0.4 µg/mL (≈ 0.666 µM) | > 50 µg/mL | > 10 µg/mL | 1.2 µg/mL (≈ 2 µM) | 2 µg/mL (≈ 3.33 µM) |
| COc1ccc(F)cc1[C@H](Cn1c(=O)n(C(C)(C)C(N)=O)c(=O)c2c(C)c(-c3ncco3)sc21)OCC1CCC(O)CC1 (stereo partly drawn) [Compound I-104] | 10 µg/mL (≈ 16.3 µM) | > 50 µg/mL | 2 µg/mL (≈ 3.25 µM) | 10 µg/mL (≈ 16.3 µM) | 0.4 µg/mL (≈ 0.651 µM) | > 10 µg/mL | > 50 µg/mL | 11 µg/mL (≈ 17.9 µM) | 10 µg/mL (≈ 16.3 µM) |
| CCNC(=O)C(C)(C)n1c(=O)c2c(C)c(-c3ncco3)sc2n(C[C@H](OC2CCC(=O)CC2)c2ccccc2OC)c1=O [Compound I-105] | > 50 µg/mL | 50 µg/mL (≈ 82.1 µM) | 2 µg/mL (≈ 3.29 µM) | 10 µg/mL (≈ 16.4 µM) | 0.4 µg/mL (≈ 0.657 µM) | > 50 µg/mL | > 50 µg/mL | 1.2 µg/mL (≈ 1.97 µM) | 10 µg/mL (≈ 16.4 µM) |
| COc1ccccc1[C@H](Cn1c(=O)n(C(C)(C)C(=O)N2CCCCC2)c(=O)c2c(C)c(-c3ncco3)sc21)OC1CCC(=O)CC1 [Compound I-106] | 50 µg/mL (≈ 77.1 µM) | 10 µg/mL (≈ 15.4 µM) | 2 µg/mL (≈ 3.08 µM) | 2 µg/mL (≈ 3.08 µM) | 0.4 µg/mL (≈ 0.617 µM) | > 50 µg/mL | > 50 µg/mL | 33.3 µg/mL (≈ 51.3 µM) | 2 µg/mL (≈ 3.08 µM) |
| COc1ccccc1[C@H](Cn1c(=O)n(C(C)(C)C(=O)OCc2ccccc2)c(=O)c2c(C)c(-c3ncco3)sc21)OC1CCC(=O)CC1 [Compound I-107] | > 50 µg/mL | > 50 µg/mL | 0.4 µg/mL (≈ 0.595 µM) | ≥ 0.4 µg/mL | 0.4 µg/mL (≈ 0.595 µM) | > 50 µg/mL | > 50 µg/mL | > 33.3 µg/mL | > 50 µg/mL |
| CCNC(=O)C(C)(C)n1c(=O)c2c(C)c(C(=O)OCC)sc2n(C[C@H](OC(C)C)c2ccccc2OC)c1=O [Compound I-108] | 50 µg/mL (≈ 89.3 µM) | 10 µg/mL (≈ 17.9 µM) | 2 µg/mL (≈ 3.57 µM) | 10 µg/mL (≈ 17.9 µM) | 0.4 µg/mL (≈ 0.715 µM) | > 50 µg/mL | > 50 µg/mL | 11.1 µg/mL (≈ 19.8 µM) | 2 µg/mL (≈ 3.57 µM) |
| CCOC(=O)c1sc2c(c1C)c(=O)n(C(C)(C)C(=O)N1CCOCC1)c(=O)n2C[C@H](OC(C)C)c1ccccc1OC [Compound I-109] | 50 µg/mL (≈ 83.1 µM) | 10 µg/mL (≈ 16.6 µM) | 0.4 µg/mL (≈ 0.665 µM) | 2 µg/mL (≈ 3.32 µM) | 0.4 µg/mL (≈ 0.665 µM) | > 50 µg/mL | > 50 µg/mL | 11.1 µg/mL (≈ 18.4 µM) | 10 µg/mL (≈ 16.6 µM) |
| COc1ccccc1[C@H](Cn1c(=O)n(C(C)(C)C(=O)N2CCCCC2)c(=O)c2c(C)c(-c3ncco3)sc21)O[C@H]1CC[C@@H](O)CC1 [Compound I-110] | 50 µg/mL (≈ 76.8 µM) | > 50 µg/mL | 2 µg/mL (≈ 3.07 µM) | 10 µg/mL (≈ 15.4 µM) | 0.4 µg/mL (≈ 0.615 µM) | > 50 µg/mL | > 50 µg/mL | 33.3 µg/mL (≈ 51.2 µM) | 2 µg/mL (≈ 3.07 µM) |
| COc1ccccc1[C@H](Cn1c(=O)n(C(C)(C)C(=O)N2CCCC2)c(=O)c2c(C)c(-c3ncco3)sc21)O[C@H]1CC[C@@H](O)CC1 [Compound I-111] | 10 µg/mL (≈ 15.7 µM) | 10 µg/mL (≈ 15.7 µM) | 2 µg/mL (≈ 3.14 µM) | 10 µg/mL (≈ 15.7 µM) | 0.4 µg/mL (≈ 0.628 µM) | > 50 µg/mL | 50 µg/mL (≈ 78.5 µM) | 3.7 µg/mL (≈ 5.81 µM) | 2 µg/mL (≈ 3.14 µM) |
| COc1ccccc1[C@H](Cn1c(=O)n(C(C)(C)C(=O)N2CCCC2)c(=O)c2c(C)c(-c3ncco3)sc21)OC1CCC(=O)CC1 [Compound I-112] | 50 µg/mL (≈ 78.8 µM) | ≥ 2 µg/mL | 2 µg/mL (≈ 3.15 µM) | 10 µg/mL (≈ 15.8 µM) | 0.4 µg/mL (≈ 0.63 µM) | > 50 µg/mL | 50 µg/mL (≈ 78.8 µM) | 3.7 µg/mL (≈ 5.83 µM) | 10 µg/mL (≈ 15.8 µM) |
| COc1ccccc1[C@H](Cn1c(=O)n(C(C)(C)C(=O)N2CCOCC2)c(=O)c2c(C)c(-c3ncco3)sc21)OC(C)C [Compound I-143] | > 50 µg/mL | 50 µg/mL (≈ 83.8 µM) | 2 µg/mL (≈ 3.35 µM) | 10 µg/mL (≈ 16.8 µM) | 2 µg/mL (≈ 3.35 µM) | > 50 µg/mL | > 50 µg/mL | 11 µg/mL (≈ 18.4 µM) | ≥ 10 µg/mL |
